Results as given in patent EP3064205A1, “Therapeutic use of isomeric forms of 2-(4-chlorophenyl)quinolin-4-yl)(piperidin-2-yl)methanol” (Glionova AB, priority 2015, dated 2016).
Read-outs that look alike come from different tables or passages of the source.

Legend:
Assay in all cases: 3D clonogenic assay (PDX)
Assay type in all cases: cell-based, human
SXFS 1937 = conditions: SXFS 1937, Sarcoma Soft Tissue; for IC50: Homo sapiens
Summary of the method: (§1)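 PDX tumors from NMRI nu/nu mice were enzymatically dissociated into cell suspensions and plated in soft agar. After 24 h, cells received continuous exposure to 10 concentrations (50 µM down to 0.0015 µM, in duplicate) for 8–13 days at 37 °C. Colonies >50 µm were stained with INT tetrazolium and counted by automated imaging; IC50 values came from 4-parameter fits.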

MAXF 1162 = conditions: MAXF 1162, Breast; for IC50: Homo sapiens
Summary of the method: as §1

HNXF 536 = conditions: HNXF 536, Head and Neck; for IC50: Homo sapiens
Summary of the method: as §1

PAXF 2059 = conditions: PAXF 2059, Pancreas; for IC50: Homo sapiens
Summary of the method: as §1

PAXF 2033 = conditions: PAXF 2033, Pancreas; for IC50: Homo sapiens
Summary of the method: as §1

LXFA 289 = conditions: LXFA 289, Lung Adeno; for IC50: Homo sapiens
Summary of the method: as §1

LXFA 629 = conditions: LXFA 629, Lung Adeno; for IC50: Homo sapiens
Summary of the method: as §1

OVXF 1353 = conditions: OVXF 1353, Ovarian; for IC50: Homo sapiens
Summary of the method: as §1

LXFA 297 = conditions: LXFA 297, Lung Adeno; for IC50: Homo sapiens
Summary of the method: as §1

CXF 94 = conditions: CXF 94, Colorectal; for IC50: Homo sapiens
Summary of the method: as §1

MEXF 622 = conditions: MEXF 622, Melanoma; for IC50: Homo sapiens
Summary of the method: as §1

LXFL 430 = conditions: LXFL 430, Lung Large Cell; for IC50: Homo sapiens
Summary of the method: as §1

In the case of `O[C@H](c1cc(-c2ccc(Cl)cc2)nc2ccccc12)[C@@H]1CCCCN1` [S1, (R)-(2-(4-chlorophenyl)quinolin-4-yl)((S)-piperidin-2-yl)methanol], the IC50 (SXFS 1937; read-out: abs. IC50) is reported as 10.1 µM, the IC50 (SXFS 1937; read-out: rel. IC50) is reported as 9.9 µM and the “b (bottom plateau of concentration-effect curve)” value (SXFS 1937) is reported as 18. The “t (top plateau of concentration-effect curve)” value (SXFS 1937) was 120, the IC50 (MAXF 1162; read-out: abs. IC50) was 4.64 µM and the IC50 (MAXF 1162; read-out: rel. IC50) was 4.63 µM. For the same compound, the “b (bottom plateau of concentration-effect curve)” value (MAXF 1162) was 12, the “t (top plateau of concentration-effect curve)” value (MAXF 1162) was 90 and the “b (bottom plateau of concentration-effect curve)” value (HNXF 536) was 14. For the same compound, the “t (top plateau of concentration-effect curve)” value (HNXF 536) was 99, the IC50 (HNXF 536; read-out: abs. IC50) was 8.21 µM and the IC50 (HNXF 536; read-out: rel. IC50) was 7.47 µM. For the same compound, the IC50 (PAXF 2059; read-out: abs. IC50) was 13.8 µM, the IC50 (PAXF 2059; read-out: rel. IC50) was 13 µM and the “b (bottom plateau of concentration-effect curve)” value (PAXF 2059) was 18. The “t (top plateau of concentration-effect curve)” value (PAXF 2059) was 130, the IC50 (PAXF 2033; read-out: abs. IC50) was 9.19 µM and the IC50 (PAXF 2033; read-out: rel. IC50) was 8.89 µM. The “b (bottom plateau of concentration-effect curve)” value (PAXF 2033) was 27, the “t (top plateau of concentration-effect curve)” value (PAXF 2033) was 110 and the IC50 (LXFA 289; read-out: abs. IC50) was 45.4 µM. The IC50 (LXFA 289; read-out: rel. IC50) was 39.3 µM, the “b (bottom plateau of concentration-effect curve)” value (LXFA 289) was 21 and the “t (top plateau of concentration-effect curve)” value (LXFA 289) was 94. For the same compound, the IC50 (LXFA 629; read-out: abs. IC50) was 9.09 µM, the IC50 (LXFA 629; read-out: rel. IC50) was 8.85 µM and the “b (bottom plateau of concentration-effect curve)” value (LXFA 629) was 26. For the same compound, the “t (top plateau of concentration-effect curve)” value (LXFA 629) was 108, the IC50 (OVXF 1353; read-out: abs. IC50) was 4.91 µM and the IC50 (OVXF 1353; read-out: rel. IC50) was 4.72 µM. The “b (bottom plateau of concentration-effect curve)” value (OVXF 1353) was 23, the “t (top plateau of concentration-effect curve)” value (OVXF 1353) was 101 and the IC50 (LXFA 297; read-out: abs. IC50) was 8.58 µM. The IC50 (LXFA 297; read-out: rel. IC50) was 8.45 µM, the “b (bottom plateau of concentration-effect curve)” value (LXFA 297) was 24 and the “t (top plateau of concentration-effect curve)” value (LXFA 297) was 100. For the same compound, the “b (bottom plateau of concentration-effect curve)” value (CXF 94) was 8, the “t (top plateau of concentration-effect curve)” value (CXF 94) was 98 and the IC50 (CXF 94; read-out: abs. IC50) was 13.3 µM. For the same compound, the IC50 (CXF 94; read-out: rel. IC50) was 12.7 µM, the IC50 (MEXF 622; read-out: abs. IC50) was 9.21 µM and the IC50 (MEXF 622; read-out: rel. IC50) was 9.14 µM. The “b (bottom plateau of concentration-effect curve)” value (MEXF 622) was 21, the “t (top plateau of concentration-effect curve)” value (MEXF 622) was 86 and the IC50 (LXFL 430; read-out: abs. IC50) was 9.06 µM. The IC50 (LXFL 430; read-out: rel. IC50) was 8.98 µM, the “b (bottom plateau of concentration-effect curve)” value (LXFL 430) was 14 and the “t (top plateau of concentration-effect curve)” value (LXFL 430) was 99.
